Results as given in ChEMBL document CHEMBL1909046, “DrugMatrix in vitro pharmacology data”.

How the values were obtained:
[1] = target: T1, Alpha-1A adrenergic receptor (Rattus norvegicus, UniProt P43140); assay: DRUGMATRIX: Alpha-1A adrenergic receptor radioligand binding (ligand: prazosin); assay type: cell membranes, Wistar, Submaxillary gland, Membrane; settings: Not Active = under 50% inhibition at 10 µM
T1 sequence (P43140 whole entry): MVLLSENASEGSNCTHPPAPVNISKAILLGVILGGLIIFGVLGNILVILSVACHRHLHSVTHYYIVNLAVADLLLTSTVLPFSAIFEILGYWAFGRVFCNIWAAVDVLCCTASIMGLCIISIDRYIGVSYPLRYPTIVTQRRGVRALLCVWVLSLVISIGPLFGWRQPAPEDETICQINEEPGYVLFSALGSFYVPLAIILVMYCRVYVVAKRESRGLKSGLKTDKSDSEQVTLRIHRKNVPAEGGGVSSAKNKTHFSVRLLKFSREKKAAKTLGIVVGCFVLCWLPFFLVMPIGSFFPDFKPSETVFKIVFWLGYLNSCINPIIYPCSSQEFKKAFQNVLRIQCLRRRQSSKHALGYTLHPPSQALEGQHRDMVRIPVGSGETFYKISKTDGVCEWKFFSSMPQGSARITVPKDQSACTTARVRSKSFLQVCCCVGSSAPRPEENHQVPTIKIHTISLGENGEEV

[2] = target: Aldo-keto reductase family 1 member B1 (Rattus norvegicus, UniProt P07943); assay: biochemical; assay type: tissue-based, Lens of camera-type eye;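 note: inhibition of aldose reductase enzyme activity, measured with DL-glyceraldehyde as the substrate; in other assays of this panel Not Active means under 50% inhibition at 10 µM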
[3] = DRUGMATRIX: Atrial Natriuretic Factor (ANF) radioligand binding (ligand: [125I] ANF (rat)); assay type: cell membranes, Cavia porcellus, Dunkin-Hartley, Adrenal gland, Membrane; settings: Not Active = under 50% inhibition at 10 µM
[4] = target: T2, C-C chemokine receptor type 4 (Homo sapiens, UniProt P51679); assay type: cell membranes, Membrane; settings: chem-1; note: in other assays of this panel Not Active means under 50% inhibition at 10 µM
T2 sequence (P51679 whole entry): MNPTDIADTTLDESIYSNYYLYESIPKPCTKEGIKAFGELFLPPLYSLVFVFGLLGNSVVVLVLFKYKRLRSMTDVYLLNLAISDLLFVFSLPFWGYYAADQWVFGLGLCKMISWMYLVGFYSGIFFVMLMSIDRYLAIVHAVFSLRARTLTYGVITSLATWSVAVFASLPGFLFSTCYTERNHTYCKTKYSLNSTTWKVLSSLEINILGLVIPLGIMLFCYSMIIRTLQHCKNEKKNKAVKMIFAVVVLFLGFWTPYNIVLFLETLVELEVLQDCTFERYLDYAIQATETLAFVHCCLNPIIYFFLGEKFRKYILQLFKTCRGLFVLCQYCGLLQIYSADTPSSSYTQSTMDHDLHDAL

[5] = DRUGMATRIX: Glutamate, AMPA radioligand binding (ligand: [3H] AMPA); assay type: cell membranes, Rattus norvegicus, Wistar, Cerebral cortex, Membrane; settings: Not Active = under 50% inhibition at 10 µM
[6] = DRUGMATRIX: Leukotriene, BLT (LTB4) radioligand binding (ligand: [3H]LTB4); assay type: cell membranes, Membrane; settings: u-937; Not Active = under 50% inhibition at 10 µM
[7] = target: T3, Neuropeptide Y receptor type 1 (Homo sapiens, UniProt P25929); assay type: cell membranes, Membrane; settings: sk-n-mc; note: in other assays of this panel Not Active means under 50% inhibition at 10 µM
T3 sequence (P25929 whole entry): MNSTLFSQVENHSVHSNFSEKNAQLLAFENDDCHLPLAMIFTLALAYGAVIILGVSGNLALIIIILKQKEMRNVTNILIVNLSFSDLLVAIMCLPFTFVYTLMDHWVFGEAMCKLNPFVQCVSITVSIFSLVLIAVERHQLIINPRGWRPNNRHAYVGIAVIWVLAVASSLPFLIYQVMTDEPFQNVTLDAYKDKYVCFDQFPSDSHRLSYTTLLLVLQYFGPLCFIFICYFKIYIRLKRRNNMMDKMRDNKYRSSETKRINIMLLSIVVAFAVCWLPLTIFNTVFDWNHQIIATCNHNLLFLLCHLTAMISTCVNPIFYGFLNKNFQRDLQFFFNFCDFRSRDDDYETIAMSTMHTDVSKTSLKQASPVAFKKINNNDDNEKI

[8] = DRUGMATRIX: Phorbol Ester radioligand binding (ligand: [3H] PDBu); assay type: cell membranes, Mus musculus, ICR, Brain, Membrane; settings: Not Active = under 50% inhibition at 10 µM

CC(C)(Sc1cc(C(C)(C)C)c(O)c(C(C)(C)C)c1)Sc1cc(C(C)(C)C)c(O)c(C(C)(C)C)c1 [PROBUCOL]
Not Active: IC50 [1] | IC50 [2] | IC50 [3] | Ki [3] | IC50 [4] | IC50 [5] | Ki [5] | IC50 [6] | Ki [6] | IC50 [7] | IC50 [8] | Ki [8]

COBALT(II) ACETYLACETONATE
Not Active: IC50 [1] | Ki [1] | IC50 [2] | Ki [2] | IC50 [3] | Ki [3] | IC50 [4] | Ki [4] | IC50 [5] | Ki [5] | IC50 [6] | Ki [6] | IC50 [7] | Ki [7] | IC50 [8] | Ki [8]

INSULIN HUMAN
Not Active: IC50 [1] | Ki [1] | IC50 [2] | Ki [2] | IC50 [3] | Ki [3] | IC50 [4] | Ki [4] | IC50 [5] | Ki [5] | IC50 [6] | Ki [6] | IC50 [7] | Ki [7] | IC50 [8] | Ki [8]

POLYVINYL ALCOHOL
Not Active: IC50 [1] | Ki [1] | IC50 [2] | Ki [2] | IC50 [3] | Ki [3] | IC50 [4] | Ki [4] | IC50 [5] | Ki [5] | IC50 [6] | Ki [6] | IC50 [7] | Ki [7] | IC50 [8] | Ki [8]
